# Reference: ChEMBL document CHEMBL1127774, “2,3,6-Substituted quinazolinones as angiotensin II receptor antagonists” (Bioorg Med Chem Lett, 1994)
# Target: T1, Angiotensin II receptor (Rattus norvegicus, UniProt P29089+P25095+P35351)
# T1 sequence (P29089 whole entry): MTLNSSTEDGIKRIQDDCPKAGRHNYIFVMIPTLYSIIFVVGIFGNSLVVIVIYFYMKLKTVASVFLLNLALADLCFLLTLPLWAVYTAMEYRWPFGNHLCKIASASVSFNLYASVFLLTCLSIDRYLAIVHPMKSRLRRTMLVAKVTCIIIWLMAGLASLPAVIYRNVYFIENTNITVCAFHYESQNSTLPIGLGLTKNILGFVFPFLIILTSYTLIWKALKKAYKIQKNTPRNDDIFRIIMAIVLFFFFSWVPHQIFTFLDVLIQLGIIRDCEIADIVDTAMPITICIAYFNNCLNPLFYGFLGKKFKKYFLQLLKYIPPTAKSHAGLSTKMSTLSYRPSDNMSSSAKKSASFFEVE
# T1 sequence (P25095 whole entry): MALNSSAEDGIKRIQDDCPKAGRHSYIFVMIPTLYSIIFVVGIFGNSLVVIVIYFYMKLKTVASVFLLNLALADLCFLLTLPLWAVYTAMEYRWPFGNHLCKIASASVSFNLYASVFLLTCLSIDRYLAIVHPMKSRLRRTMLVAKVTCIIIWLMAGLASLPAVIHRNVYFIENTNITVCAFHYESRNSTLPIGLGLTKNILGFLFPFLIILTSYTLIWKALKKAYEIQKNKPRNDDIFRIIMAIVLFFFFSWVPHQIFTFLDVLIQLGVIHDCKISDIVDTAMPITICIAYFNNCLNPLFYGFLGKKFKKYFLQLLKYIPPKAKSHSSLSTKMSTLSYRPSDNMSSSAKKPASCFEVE
# T1 sequence (P35351 whole entry): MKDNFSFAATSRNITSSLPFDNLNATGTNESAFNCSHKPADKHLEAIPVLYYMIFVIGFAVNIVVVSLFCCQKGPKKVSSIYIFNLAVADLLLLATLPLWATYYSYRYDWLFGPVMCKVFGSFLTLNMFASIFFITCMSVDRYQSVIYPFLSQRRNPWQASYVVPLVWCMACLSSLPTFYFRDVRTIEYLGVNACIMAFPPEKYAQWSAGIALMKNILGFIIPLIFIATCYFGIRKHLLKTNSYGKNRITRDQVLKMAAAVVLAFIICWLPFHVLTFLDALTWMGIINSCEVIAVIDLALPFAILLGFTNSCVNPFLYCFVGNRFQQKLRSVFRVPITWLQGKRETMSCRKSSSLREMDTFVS
# Assay: Concentration required for 50% inhibition of binding against Angiotensin II receptor in the rat adrenal cortex tissue
# Assay type: tissue-based
row,Compound,IC50 [µM]
1,CCCCc1nc2ccc(C(C)N)cc2c(=O)n1Cc1ccc(-c2ccccc2-c2nn[nH]n2)cc1 (centres undefined),0.014
2,CCCCc1nc2ccc(CN)cc2c(=O)n1Cc1ccc(-c2ccccc2-c2nn[nH]n2)cc1,0.015
3,CCCCc1nc2ccc(C(C)(C)O)cc2c(=O)n1Cc1ccc(-c2ccccc2-c2nn[nH]n2)cc1,0.009
4,CCCCc1nc2ccc(COC)cc2c(=O)n1Cc1ccc(-c2ccccc2-c2nn[nH]n2)cc1,0.018
5,CCCCc1nc2ccc(C(CC)OC)cc2c(=O)n1Cc1ccc(-c2ccccc2-c2nn[nH]n2)cc1 (centres undefined),0.005
6,CCCCc1nc2ccc(C(O)CC)cc2c(=O)n1Cc1ccc(-c2ccccc2-c2nn[nH]n2)cc1 (centres undefined),0.012
7,CCCCc1nc2ccc(C(C)OC)cc2c(=O)n1Cc1ccc(-c2ccccc2-c2nn[nH]n2)cc1 (centres undefined),0.007
8,CCCCc1nc2ccc(CO)cc2c(=O)n1Cc1ccc(-c2ccccc2-c2nn[nH]n2)cc1,0.01
9,CCCCc1nc2ccc(C(C)O)cc2c(=O)n1Cc1ccc(-c2ccccc2-c2nn[nH]n2)cc1 (centres undefined),0.009
10,CCCCc1nc2ccc(C(O)CO)cc2c(=O)n1Cc1ccc(-c2ccccc2-c2nn[nH]n2)cc1 (centres undefined),1
11,CCCCc1nc2ccc(C(OC)c3ccccc3)cc2c(=O)n1Cc1ccc(-c2ccccc2-c2nn[nH]n2)cc1 (centres undefined),0.009
12,CCCCc1nc2ccc(C(O)C(C)(C)C)cc2c(=O)n1Cc1ccc(-c2ccccc2-c2nn[nH]n2)cc1 (centres undefined),1
13,CCCCc1nc2ccc(C(C)NC(C)=O)cc2c(=O)n1Cc1ccc(-c2ccccc2-c2nn[nH]n2)cc1 (centres undefined),0.006
14,CCCCc1nc2ccc(C)cc2c(=O)n1Cc1ccc(-c2ccccc2-c2nn[nH]n2)cc1,0.01
15,CCCCc1nc2ccc(C(C)(C)OC)cc2c(=O)n1Cc1ccc(-c2ccccc2-c2nn[nH]n2)cc1 [CL-329167],0.006

# Target: Type-1 angiotensin II receptor (Oryctolagus cuniculus) (UniProt P34976)
# Assay: Concentration required for inhibition […] against Angiotensin II receptor in rabbit aortic rings
# Chain of Type-1 angiotensin II receptor (Oryctolagus cuniculus) (P34976 whole entry, looked up): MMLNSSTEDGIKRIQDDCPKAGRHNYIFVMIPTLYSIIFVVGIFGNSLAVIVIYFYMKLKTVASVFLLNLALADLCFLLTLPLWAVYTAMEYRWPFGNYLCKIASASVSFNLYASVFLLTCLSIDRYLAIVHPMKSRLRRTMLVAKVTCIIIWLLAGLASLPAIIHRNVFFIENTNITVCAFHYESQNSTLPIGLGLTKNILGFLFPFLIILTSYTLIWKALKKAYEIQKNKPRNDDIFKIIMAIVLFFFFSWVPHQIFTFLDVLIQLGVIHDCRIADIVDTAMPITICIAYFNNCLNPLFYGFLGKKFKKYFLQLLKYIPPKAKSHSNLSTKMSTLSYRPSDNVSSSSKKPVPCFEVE
row,Compound,pA2
1,CCCCc1nc2ccc(C(C)(C)OC)cc2c(=O)n1Cc1ccc(-c2ccccc2-c2nn[nH]n2)cc1 [CL-329167],8.01

# Target: T2, Type-1 angiotensin II receptor (Bos taurus, UniProt P25104)
# T2 sequence (P25104 whole entry): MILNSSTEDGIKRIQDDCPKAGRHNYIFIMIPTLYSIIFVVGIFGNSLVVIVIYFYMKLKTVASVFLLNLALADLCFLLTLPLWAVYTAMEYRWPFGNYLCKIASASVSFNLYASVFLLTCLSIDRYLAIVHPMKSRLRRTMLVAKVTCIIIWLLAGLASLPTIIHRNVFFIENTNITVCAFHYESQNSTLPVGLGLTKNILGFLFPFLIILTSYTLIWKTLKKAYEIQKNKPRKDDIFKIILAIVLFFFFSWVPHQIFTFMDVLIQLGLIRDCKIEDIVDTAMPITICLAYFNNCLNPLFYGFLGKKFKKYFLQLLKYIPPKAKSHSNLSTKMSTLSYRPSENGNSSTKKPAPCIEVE
# Assay: Concentration required for 50% inhibition of binding against Angiotensin II receptor in the bovine adrenal cortex tissue
# Assay type: tissue-based
row,Compound,IC50 [µM]
1,CCCCc1nc2ccc(COc3ccccn3)cc2c(=O)n1Cc1ccc(-c2ccccc2-c2nn[nH]n2)cc1,0.13
2,CCCCc1nc2ccc(COc3ccccc3)cc2c(=O)n1Cc1ccc(-c2ccccc2-c2nnn[nH]2)cc1,0.13
3,CCCCc1nc(Cl)c(CO)n1Cc1ccc(-c2ccccc2-c2nn[nH]n2)cc1 [LOSARTAN],0.33
